Experimental data reported in patent publication US7153849B2, “Antidepressant arylpiperazine derivatives of hetrocycle-fused benzodioxans” (Wyeth, priority 2002, dated 2006).

How the values were obtained:
[1] = target: T1, cloned human 5HT1A receptors (Homo sapiens, UniProt P08908); assay: 35S-GTPγS binding assay, 5HT1A antagonist activity; assay type: biochemical; settings: for 5HT1A Function Imax: maximum inhibitory effect, vs 8-OH-DPAT, unit assumed; for IC50: reversal of 8-OH-DPAT (antagonist), read-out: 5HT1A Function IC50
T1 construct: expressed in transfected cells
T1 sequence (P08908 1-422): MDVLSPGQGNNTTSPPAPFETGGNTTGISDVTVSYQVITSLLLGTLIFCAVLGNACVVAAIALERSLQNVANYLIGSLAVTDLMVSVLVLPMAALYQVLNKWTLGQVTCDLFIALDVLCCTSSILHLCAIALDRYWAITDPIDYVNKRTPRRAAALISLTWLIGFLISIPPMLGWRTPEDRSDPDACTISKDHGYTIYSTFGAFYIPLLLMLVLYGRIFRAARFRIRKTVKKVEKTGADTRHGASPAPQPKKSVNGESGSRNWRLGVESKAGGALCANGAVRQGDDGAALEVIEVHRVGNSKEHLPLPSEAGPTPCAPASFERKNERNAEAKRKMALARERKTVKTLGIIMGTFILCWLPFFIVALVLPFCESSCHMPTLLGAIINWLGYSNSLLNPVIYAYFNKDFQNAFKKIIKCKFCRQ
Description: Antagonist activity at 5HT1A receptors was established by using a ^35S-GTPγS binding assay similar to that used by Lazareno and Birdsall (Br. J. Pharmacol. 109:1120, 1993), in which the test compound's ability to affect the binding of ^35S-GTPγS to membranes containing cloned human 5HT1A receptors was determined. Agonists produce an increase in binding whereas antagonists produce no increase but rather reverse the effects of the standard agonist 8-OH-DPAT. The test compound's maximum inhibitory effect is represented as the Imax, while its potency is defined by the IC50.

human 5HT1A receptors = target: T2, human 5HT1A receptors (Homo sapiens, UniProt P08908); assay: [3H] 8-OH-DPAT displacement from 5HT1A receptor in stably transfected CHO cells; assay type: binding; settings: CHO cells with human 5HT1A; for Ki: read-out: 5HT1A Receptor Affinity Ki
T2 construct: expressed in transfected cells; host or cells: CHO cells
T2 sequence (P08908 1-422): T1 sequence (P08908 1-422)
Excerpt: High affinity for the serotonin 5HT1A receptor was established by testing the claimed compound's ability to displace [^3H] 8-OH-DPAT (dipropylamino-tetralin) from the 5HT1A serotonin receptor following a modification of the procedure of Hall et al., J. Neurochem. 44, 1685 (1985) which utilizes CHO cells stably transfected with human 5HT1A receptors.

serotonin transporter = target: T3, serotonin transporter (Rattus norvegicus, UniProt P31652); assay: 3H-paroxetine displacement from rat frontal cortical membranes (serotonin transporter affinity); assay type: binding; settings: 3H-paroxetine, male rat frontal cortical membranes; for Ki: read-out: 5-HT Transporter Affinity Ki
T3 construct: displace ^3H-paroxetine from male rat frontal cortical membranes; from tissue; host or cells: male rat frontal cortical membranes
T3 sequence (P31652 whole entry): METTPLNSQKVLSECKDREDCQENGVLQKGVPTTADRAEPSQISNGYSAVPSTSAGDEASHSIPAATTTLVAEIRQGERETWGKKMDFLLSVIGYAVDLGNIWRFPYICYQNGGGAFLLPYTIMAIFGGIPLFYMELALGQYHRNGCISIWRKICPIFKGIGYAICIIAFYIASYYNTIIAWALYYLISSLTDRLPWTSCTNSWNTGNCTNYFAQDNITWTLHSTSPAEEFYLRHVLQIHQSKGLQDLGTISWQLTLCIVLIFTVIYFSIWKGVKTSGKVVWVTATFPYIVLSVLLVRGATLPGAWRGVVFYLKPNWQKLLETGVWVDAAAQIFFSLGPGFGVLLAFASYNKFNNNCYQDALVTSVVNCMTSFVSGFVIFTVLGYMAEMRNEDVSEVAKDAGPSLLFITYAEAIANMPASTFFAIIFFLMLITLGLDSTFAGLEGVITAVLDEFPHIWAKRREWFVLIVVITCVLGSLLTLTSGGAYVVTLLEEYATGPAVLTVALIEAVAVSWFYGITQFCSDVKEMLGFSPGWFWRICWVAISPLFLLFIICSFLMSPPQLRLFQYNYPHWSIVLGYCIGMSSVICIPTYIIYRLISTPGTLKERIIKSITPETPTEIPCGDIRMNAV

Work on Cc1ccc2c3c(ccc2n1)OC[C@H](CN1CCN(c2cccc(Cl)c2)CC1)O3 [Example 1, (2S)-2-{[4-(3-chlorophenyl)piperazin-1-yl]methyl}-8-methyl-2,3-dihydro[1,4]dioxino[2,3-f]quinoline] yielded a 5HT1A Function Imax [1] of 100%, an IC50 [1] of 4560 nM and a Ki (human 5HT1A receptors) of 15.9 nM. For the same molecule, the Ki (serotonin transporter) was 15.7 nM and the melting point was 110 to 112 °C.
For COc1ccccc1N1CCN(C[C@H]2COc3ccc4nc(C)ccc4c3O2)CC1 [Example 4, (2S)-2-{[4-(2-methoxyphenyl)piperazin-1-yl]methyl}-8-methyl-2,3-dihydro[1,4]dioxino[2,3-f]quinoline], the 5HT1A Function Imax [1] was 87%, the IC50 [1] was 994 nM and the “5HT1A Receptor Affinity, % @ 1 μM” value (human 5HT1A receptors) was 95% @ 1 μM. For the same molecule, the “5-HT Transporter Affinity, % @ 1 μM” value (serotonin transporter) was 34% @ 1 μM and the melting point was 44 to 47 °C.
With COc1cccc(N2CCN(C[C@H]3COc4ccc5nc(C)ccc5c4O3)CC2)c1 [Example 5, (2S)-2-{[4-(3-methoxyphenyl)piperazin-1-yl]methyl}-8-methyl-2,3-dihydro[1,4]dioxino[2,3-f]quinoline] the 5HT1A Function Imax [1] was 84%, the IC50 [1] was 1720 nM and the “5HT1A Receptor Affinity, % @ 1 μM” value (human 5HT1A receptors) was 80% @ 1 μM. The Ki (serotonin transporter) was 35.5 nM and the melting point was 90 to 91 °C.
For COc1ccc(N2CCN(C[C@H]3COc4ccc5nc(C)ccc5c4O3)CC2)cc1 [Example 6, (2S)-2-{[4-(4-methoxyphenyl)piperazin-1-yl]methyl}-8-methyl-2,3-dihydro[1,4]dioxino[2,3-f]quinoline], the 5HT1A Function Imax [1] was 37%, the IC50 [1] was 3940 nM and the “5HT1A Receptor Affinity, % @ 1 μM” value (human 5HT1A receptors) was 81% A1 μM. The “5-HT Transporter Affinity, % @ 1 μM” value (serotonin transporter) was 0% @ 1 μM and the melting point was 164 to 165 °C.
Cc1ccc2c3c(ccc2n1)OC[C@H](CN1CCN(c2cccc(C(F)(F)F)c2)CC1)O3 [Example 8, (2S)-8-methyl-2-[4-(3-trifluoromethyl-phenyl)piperazin-1-ylmethyl]-2,3-dihydro[1,4]dioxine[2,3-f]quinoline] gave a 5HT1A Function Imax [1] of 100%, an IC50 [1] of 3110 nM and a Ki (human 5HT1A receptors) of 31.4 nM. The Ki (serotonin transporter) was 21.6 nM and the melting point was 123 to 124 °C.
Cc1ccc2c3c(ccc2n1)OC[C@H](CN1CCN(c2cccc(C)c2C)CC1)O3 [Example 10, (2S)-2-{[4-(2,3-dimethylphenyl)piperazin-1-yl]methyl}-8-methyl-2,3-dihydro[1,4]dioxino[2,3-f]quinoline] gave a 5HT1A Function Imax [1] of 98%, an IC50 [1] of 403 nM and a Ki (human 5HT1A receptors) of 82.5 nM. The Ki (serotonin transporter) was 88.5 nM and the melting point was 112 to 113 °C.
Cc1ccc2c3c(ccc2n1)OC[C@H](CN1CCN(c2ccc(C)c(C)c2)CC1)O3 [Example 11, (2S)-2-{[4-(3,4-dimethylphenyl)piperazin-1-yl]methyl}-8-methyl-2,3-dihydro[1,4]dioxino[2,3-f]quinoline] showed a 5HT1A Function Imax [1] of 84%, an IC50 [1] of 345 nM and a Ki (human 5HT1A receptors) of 18.2 nM. It also gave a Ki (serotonin transporter) of 85.5 nM and a melting point of 118 to 120 °C.
With Cc1ccc2c3c(ccc2n1)OC[C@H](CN1CCN(c2ccc4ccccc4n2)C[C@@H]1C)O3 [Example 19, (2S)-8-methyl-2-{[(2S)-2-methyl-4-quinolin-2-ylpiperazin-1-yl]methyl}-2,3-dihydro[1,4]dioxino[2,3-f]quinoline] the 5HT1A Function Imax [1] was 90%, the IC50 [1] was 3000 nM and the Ki (human 5HT1A receptors) was 167 nM. The Ki (serotonin transporter) was 123 nM and the melting point was 141 to 144 °C.
With Cc1ccc2c3c(ccc2n1)OC[C@H](CN1CCN(c2ccc4ccccc4n2)C[C@H]1C)O3 [Example 21, (2S)-8-methyl-2-{[(2R)-2-methyl-4-quinolin-2-ylpiperazin-1-yl]methyl}-2,3-dihydro[1,4]dioxino[2,3-f]quinoline] the 5HT1A Function Imax [1] was 83.5%, the IC50 [1] was 867 nM and the Ki (human 5HT1A receptors) was 5.53 nM. It also gave a Ki (serotonin transporter) of 32.8 nM and a melting point of 78 to 82 °C.
Cc1ccc2c3c(ccc2n1)OC[C@H](CN1CCN(c2ccc4cc(Br)ccc4n2)CC1)O3 [Example 27, (2S)-2-{[4-(6-Bromoquinolin-2-yl)piperazin-1-yl]methyl}-8-methyl-2,3-dihydro[1,4]dioxino[2,3-f]quinoline] showed a 5HT1A Function Imax [1] of 82%, an IC50 [1] of 2410 nM and a Ki (human 5HT1A receptors) of 17.1 nM. It also gave a Ki (serotonin transporter) of 101 nM and a melting point of 153 to 154 °C.
Work on Cc1ccc2c3c(ccc2n1)OC[C@H](CN1CCCN(c2ccc4cc(C#N)ccc4n2)CC1)O3 [Example 34, 2-(4-{[(2S)-8-Methyl-2,3-dihydro[1,4]dioxino[2,3-f]quinolin-2-yl]methyl}-1,4-diazepan-1-yl)quinoline-6-carbonitrile] yielded a Ki (human 5HT1A receptors) of 2.04 nM, a Ki (serotonin transporter) of 1.09 nM and a melting point of 80 to 85 °C.
